In patent US5736568A, “2-(aminoalkoxy) phenylalkylamines with antiinflammatory activity” (Knoll Aktiengesellschaft, priority 1994, dated 1998):

Tests used:
[1] = test system: arachidonic acid release from zymosan stimulated macrophages; experiment: Test A: Inhibition of Arachidonic Acid Release from Zymosan Stimulated Macrophages; type: cell-based, mice (female MF1); details: Mus musculus, Macrophage; peritoneal macrophages labelled with [3H]-arachidonic acid, zymosan stimulus, 5 h; tested at 100, 50, 20, 10, 5 and 1 μM
Protocol: Test A was carried out in the following way:
Inhibition of Arachidonic Acid Release from Zymosan Stimulated Macrophages
Female MF1 mice (weighing 20 to 25 g) were killed using a rising concentration of CO2. The mice were laid on their backs and the abdomens wiped with 70% alcohol. The skin was pulled back, exposing the peritoneal wall. Medium A (5 ml) (see below) was injected into the peritoneal cavity of each mouse followed by approximately 1 ml of air using a 20 ml syringe and a 21 G×40 mm needle in order to form a suspension of macrophage cells. The medium and cells were then removed using a 19 G×40 mm needle. The resulting suspension was returned to a sterile beaker kept on ice. The extracts from all the mice were pooled and this pooled cell suspension was counted using a Coulter counter and adjusted to a final cell count of 1-1.3×10^6 cells/ml prior to labelling with [^3 H]-arachidonic acid. Typically five mice provided sufficient cells for each multiwell plate.
Sufficient [^3 H]-arachidonic acid in ethanol to give a final concentration of 1.6 μCi/ml (equivalent to 40 μCi/plate) was blown to dryness under nitrogen. The arachidonic acid was then resuspended in 1 or 2 ml of the cell suspension which was then mixed with the remainder of the cell suspension in a centrifuge bottle.
The following day, non-adherent cells were removed by washing 3 times with sterile phosphate buffered saline (PBS). The adherent peritoneal macrophages were then cultured for a further 24 hours in the presence or absence of drugs, in medium B (see below) at 37° in a 5% CO2 atmosphere in order to measure the effects of drugs on the spontaneous release of arachidonic acid in the absence of stimulus. After this incubation, supernatants were removed to give medium 1 and stored in sealed multi-well plates at 4° C. prior to scintillation counting. […] The supernatants were replaced by fresh medium C containing fresh drug and a stimulus. Three drugs were tested at six concentrations (100, 50, 20, 10, 5 and 1 μM) in replicates of four on each plate. The other wells contained controls consisting of a positive control (e.g. dexamethasone), medium (B) only and medium C only.
Incubation was then continued for a further 5 hours, whereupon the supernatants were collected to give medium 2 and the adherent cells washed with PBS. The cells were then lysed with 100 μl of 0.1% TRITON® X100 in a 0.1% solution of bovine serum albumin in 0.9% saline and mechanically disrupted to give cell lysates. These supernatants (medium 2) and cell lysates (Cells) were also stored in sealed multi-well plates at 4° C. prior to scintillation counting. 200 μl aliquots of media, or 100 μl aliquots of cells were counted using 2 ml of OPTIPHASE "HIGH SAFE" (Trademark of LKB) as scintillant.
The percentage of arachidonic acid released was calculated using the mean values for each group of 4 wells in the following equation. [formula]
The percentage inhibition of arachidonic acid release caused by a drug may then be calculated using the following equation. [formula]
Medium A (for peritoneal lavage)
This mixture was transferred to sterile flask and made up to 400 ml with sterile water.
Medium B (for cell culture)
This mixture was transferred to a sterile beaker and made up to 650 ml with sterile water.
Medium C=medium B+stimulant (zymosan)
The zymosan stimulant was prepared as follows:--zymosan (200 mg) (supplied by Sigma) was added to PBS (20 ml). The mixture was boiled for 30 minutes and the volume restored to 20 ml with water. The zymosan was harvested by centrifugation at 500×g for 5 minutes, washed twice by resuspension in PBS (10 ml) and centrifugation. After the final separation, the zymosan was resuspended in 20 ml PBS and stored as 1 ml aliquots at -20° C.

[2] = test system: carrageenan-induced paw oedema; experiment: Test B: Carrageenan-induced rat paw oedema test; type: in vivo; details: inhibition of paw oedema, 100 mg/kg oral, 3 h after carrageenan
Protocol: Test B was carried out in the following way:
Carrageenan-induced rat paw oedema test
Female rats, weight range 125-150 g were fasted overnight. One of the hind legs of each animal was marked with a line at the connection between the cuboid/navicular and calcaneus/talus bones. Groups of six rats were orally dosed at 10 ml/kg, in random order, with a given dose of the test compound given as a solution or suspension in 10% (w/v) aqueous acacia solution.
One hour after dosing, 0.1 ml of 1% (w/v) sterile carrageenan λ in normal saline was injected deeply into the plantar surface of the marked hind foot of each rat. The volume of the foot (up to the marked line) was measured immediately after injection using duplicate water displacement readings. Three hours after injection the foot volume was measured again and the percentage increase in foot volume relative to the initial reading was calculated.
The increase in foot volume (i.e. the degree of oedema) in drug treated animals when compared with that in the drug untreated control gave the degree of inhibition of paw oedema by the drug.
Compounds were considered to be active in this test if they produced a statistically significant (typically 20% or greater) inhibition of paw oedema in at least two out of three tests after oral dosing at 100 mg/kg. Statistical significance was assessed using the Student's t test for single dose studies and Dunnett's test for multiple dose studies. More advantageous compounds were active in both Tests A and B,

[3] = test system: carrageenan-induced pleurisy; experiment: Test C: Carrageenan-induced pleurisy in rats; type: in vivo, rat; details: 24 h and 48 h, leukocytes harvested at 72 h; for activity in Test C at 10 mg/kg or less: 10 mg/kg or less p.o. at challenge; for activity in Test C at 30 mg/kg: 30 mg/kg p.o. at challenge
Protocol: The most advantageous compounds of formula I were active in Test A and also in the following test. Carrageenan-induced pleurisy in rats was carried out as described by Ackerman et al. J. Pharmacol. Exp. Therap. 1980, 215, 588-595. Migrating leukocytes were harvested by lavage of the thoracic cavity 72 h after injection of 0.3 ml 1% λ-carrageenan in sterile isotonic saline. Test compounds were administered p.o. at the time of challenge and 24 h and 48 h thereafter.

| SMILES | IC50 [1] | inhibition at 100 mg/kg [2] | activity in Test C at 10 mg/kg or less [3] | activity in Test C at 30 mg/kg [3] |
| --- | --- | --- | --- | --- |
| CN(C)Cc1cc(Cl)ccc1OCCN(C)Cc1ccccc1 [Example 21, 2-[2-(N-Benzyl-N-methylamino)ethoxy]-5-chloro-N,N-dimethylbenzylamine] | 22 µM | 31% | active |  |
| CN(C)Cc1cc(F)ccc1OCCN(C)Cc1ccccc1 [Example 3, 2-[2-(N-Benzyl-N-methylamino)ethoxy]-5-fluoro-N,N-dimethylbenzylamine] | 20 µM | 52% |  | active |
| CN(C)Cc1cc(Cl)ccc1OCCCN(C)Cc1ccccc1 [Example 12, 2-[3-(N-Benzyl-N-methylamino)propoxy]-5-chloro-N,N-dimethylbenzylamine] | 8 µM | 68% |  | active |
| CN(C)Cc1ccccc1OCCN(C)Cc1ccccc1 [Example 20, 2-[2-(N-Benzyl-N-methylamino)ethoxy]-N,N-dimethylbenzylamine] | 36 µM | 64% |  | active |

The remaining molecules from weak to strong by IC50 [1], led by results:

| IC50 [1] | SMILES | inhibition at 100 mg/kg [2] | activity in Test C at 10 mg/kg or less [3] | activity in Test C at 30 mg/kg [3] |
| --- | --- | --- | --- | --- |
| 15 µM | CN(C)Cc1ccc(Cl)cc1OCCN(C)Cc1ccccc1 [Example 6, 2-[2-(N-Benzyl-N-methylamino)ethoxy]-4-chloro-N,N-dimethylbenzylamine] | 18% |  | active |
| 13 µM | CN(C)Cc1c(OCCN(C)Cc2ccccc2)ccc2ccccc12 [Example 8, N-Benzyl-2-[1-(dimethylaminomethyl)naphth-2-yloxy]-N-methylethylamine] | 23% |  | active |
| 13 µM | CN(C)Cc1ccccc1OCCN(C)Cc1ccc(Cl)cc1 [Example 17, 2-{2-[N-(4-Chlorobenzyl)-N-methylamino]ethoxy}-N,N-dimethylbenzylamine] | 36% | active |  |
